How the values were obtained:
NgtS [1] = target: T1, NgtS (Streptococcus pneumoniae, UniProt A0A0H2UMY0); test: UV difference titration; settings: read-out: affinity constant; bimolecular binding model with ligand depletion
T1 construct: gene SP_0092; residues 25-491, secretion signal peptide and lipobox removed, C-terminal six-histidine tag, expressed in E. coli BL21 Star (DE3)

NgtS [2] = target: T1, NgtS; test: ITC; settings: 20 mM Tris, pH 8.0, 25 °C; 1:1 binding
SpGH92 [3] = target: T2, SpGH92 (Streptococcus pneumoniae, UniProt A0A0H2US35); test: UPLC-MS; type: biochemical; settings: 10 mM MOPS pH 7.0, 2 mM CaCl2, room temperature, 16 h, 0.6 μM substrate, 1 μM enzyme
T2 construct: gene SP_2145

SpGH92 [4] = target: T2, SpGH92; test: X-ray crystal structure, […] Å; type: binding; settings: crystal soaked with α-(1,2)-mannobiose; mannose in +1 subsite, Ca2+ and glycerol bound
[5] = target: the molecule itself; test: crystal structure; crystals grown in 2.25 M (NH4)2SO4, 0.1 M Bis-Tris pH 5.5, soaked with α-(1,2)-mannobiose; four molecules in the asymmetric unit

T1 sequence (A0A0H2UMY0 25-491): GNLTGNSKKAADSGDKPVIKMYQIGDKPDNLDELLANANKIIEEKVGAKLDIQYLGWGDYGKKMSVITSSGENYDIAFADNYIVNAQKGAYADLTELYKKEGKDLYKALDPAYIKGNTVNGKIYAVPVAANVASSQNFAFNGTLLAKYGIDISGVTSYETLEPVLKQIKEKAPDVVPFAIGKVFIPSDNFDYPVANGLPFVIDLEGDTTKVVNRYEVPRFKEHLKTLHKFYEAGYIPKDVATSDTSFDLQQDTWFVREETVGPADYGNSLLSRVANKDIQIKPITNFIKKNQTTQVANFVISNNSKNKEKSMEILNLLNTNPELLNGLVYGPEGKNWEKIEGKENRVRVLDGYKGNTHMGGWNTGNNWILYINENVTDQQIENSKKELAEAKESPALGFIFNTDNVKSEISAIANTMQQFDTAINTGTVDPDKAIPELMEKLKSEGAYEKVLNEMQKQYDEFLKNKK

Work on `CC(=O)N[C@H]1C(O)O[C@H](CO)[C@@H](O[C@@H]2O[C@H](CO)[C@@H](O)[C@H](O)[C@@H]2O)[C@@H]1O` (some centres unmarked) [Man1GlcNAc] yielded a Kd (NgtS [1]) of 83.3 µM.

`CC(=O)N[C@H]1C(O)O[C@H](CO)[C@@H](O[C@@H]2O[C@H](CO[C@H]3O[C@H](CO[C@H]4O[C@H](CO)[C@@H](O)[C@H](O)[C@@H]4O)[C@@H](O)[C@H](O[C@H]4O[C@H](CO)[C@@H](O)[C@H](O)[C@@H]4O)[C@@H]3O)[C@@H](O)[C@H](O[C@H]3O[C@H](CO)[C@@H](O)[C@H](O)[C@@H]3O)[C@@H]2O)[C@@H]1O` (some centres unmarked) [Man5GlcNAc] was tested, and the Ka (NgtS [2]) was 1.04 (± 0.01)×10^6.

With `CC(=O)N[C@H]1[C@H](O[C@H]2[C@H](O)[C@@H](NC(C)=O)C(O)O[C@@H]2CO)O[C@H](CO)[C@@H](O[C@@H]2O[C@H](CO[C@H]3O[C@H](CO[C@H]4O[C@H](CO)[C@@H](O)[C@H](O)[C@@H]4O[C@H]4O[C@H](CO)[C@@H](O)[C@H](O)[C@@H]4O)[C@@H](O)[C@H](O[C@H]4O[C@H](CO)[C@@H](O)[C@H](O)[C@@H]4O[C@H]4O[C@H](CO)[C@@H](O)[C@H](O)[C@@H]4O)[C@@H]3O)[C@@H](O)[C@H](O[C@H]3O[C@H](CO)[C@@H](O)[C@H](O)[C@@H]3O[C@H]3O[C@H](CO)[C@@H](O)[C@H](O)[C@@H]3O[C@H]3O[C@H](CO)[C@@H](O)[C@H](O)[C@@H]3O)[C@@H]2O)[C@@H]1O` (some centres unmarked) [Man9GlcNAc2] the UPLC-MS (SpGH92 [3]) was “treatment of Man9GlcNAc2 with SpGH92 produced a glycan having a mass consistent with Man5GlcNAc2”.

In the case of `OC[C@H]1OC(O)[C@@H](O)[C@@H](O)[C@@H]1O` (some centres unmarked) [mannose], the “X-ray crystal structure, 2.15 Å” value (SpGH92 [4]) is reported as “electron density consistent with a single mannose residue, resulting from the hydrolysis”.

B1: SpGH92 (SP_2145), α-(1,2)-mannosidase from Streptococcus pneumoniae TIGR4 (enzyme)
chain: MKPLLETIDTRFGTTNKHAFSRGNTLPYTGVPFGMNYFVPQTSDQDGSWFFDPHLPIFQGIRLTHQPSPWIGDYSWLLLTPVTSQLGGDSLFHRQSSYDIDKACFQPHYLKLFSLRYQIETQLTPTCYGASIRLNQKQGKALSLYLHAADELTVEQVDKRTLALRQEGKTETNKNSLTMFTALQMNTDILAISQEAGDWRIDLASSQTEMQLATSFISPSQALINLPQEDFDSCKSSAQVDWENLLHRFDIIETGEADRTFFDHCLYRLFLFPQTFYEINESGQAIHMDLATGTVKPGVLFSNNGFWDTFRTTFPLFALIIPEHYQRFLEGFLNSYRDTGFLPKWLAPDERGMMPGTLLDGIIADSACKDMTPDLEGELFQAMLETASKADPLGINGRHGLAQYQELGYLSTDHHESVSHTLDYAYSDFCIASCAKKLENIEIAETYKAASQNYRQLFDAETGYMRARDNQGNFHPDFSPYSWGRDYAECSAIQATLGVLHDIPGLIQLMGGKETFSNYLLKACQDAPLFETTGYGYEIHEMSEMATAPFGQIAISNQPSFHIPYLFRYSDYPDYTALLIKTLRQKAFHPSWEAYPGDEDNGSLSAWYIWSALGFYPTCPGKPSYDLGIPLFDHLRVYLAKEDKWLDIHTKQNHNHFNFVKECRLDKTLVSTIQHQDLLKAEQLTFTLSWLPSH
notes: SpGH92, family 92 glycoside hydrolase, S. pneumoniae TIGR4 locus tag SP_2145, amino acids 1-694, cloned in pET28a between NheI and XhoI; Tetramer with D2 symmetry in the crystal and in solution; theoretical molecular weight of the tetramer 325.96 kDa; source: E. coli BL21 Star (DE3), autoinduction, purified (Ni-NTA)
For B1, the “stoichiometry N” value [5] was 4.

Source: publication PMC5215778, “Molecular Characterization of N-glycan Degradation and Transport in Streptococcus pneumoniae and Its Contribution to Virulence” (PLoS Pathogens, 2017)
